The values that follow come from paper PMC12547551, “Lanostane–Meroterpene Conjugates with Unusual Aryl Ether Linkage and a Lanostane Dimer from Artificially Cultivated Fruiting Bodies of Ganoderma cf. hochiminhense” (ACS Omega, 2025).

One assay concerns Plasmodium falciparum K1. Kind of assay: Antiplasmodial assay, microculture radioisotope technique. The format is cell-based. The note with it: P. falciparum K1, standard drug.
The test system of assay [1] is Mycobacterium tuberculosis H37Ra. Kind of assay: Antimycobacterial activity, green fluorescent protein detection method. The format is cell-based. The note with it: M. tuberculosis H37Ra, standard drugs.
Assay [2] relates to NCI-H187 (small-cell lung cancer) cells. Kind of assay: Cytotoxicity against NCI-H187 cells, resazurin fluorescent method. The format is cell-based. The note with it: Homo sapiens. For orientation: The colour change of resazurin is a common sign of viable cells or microbes.
Assay [3] deals with MCF-7 (breast cancer) cells. Briefly: Cytotoxicity against MCF-7 cells, resazurin fluorescent method. In kind it is cell-based. As to conditions: Homo sapiens, MCF7.
A further assay has as its system Vero cells. Kind of assay: Cytotoxicity to Vero cells, green fluorescent protein detection method. The format is cell-based, African green monkey. The note with it: Chlorocebus sabaeus; nonmalignant Vero cells.

The pIC50 is −log10 of the IC50, conventionally taken in molar units. Low readings indicate a high IC50, high ones a low IC50. By MIC is commonly meant the lowest concentration that inhibits growth of the organism.

pIC50: −log10 of the molar value. Converted amounts (≈) assume the structure as drawn. Bounds are passed on as bounds.

Regarding `C[C@H]1[C@@H](O)O[C@@H]2O[C@@]3(C)CC[C@H]4[C@H](C)CC[C@@H]1[C@@]24OO3` [Dihydroartemisinin], in the assay on Plasmodium falciparum K1, the negative-log IC50 (pIC50) is 8.85.

`CO[C@H]1/C=C/O[C@@]2(C)Oc3c(C)c(O)c4c(O)c(c(/C=N/N5CCN(C)CC5)c(O)c4c3C2=O)NC(=O)/C(C)=C\C=C\[C@H](C)[C@H](O)[C@@H](C)[C@@H](O)[C@@H](C)[C@H](OC(C)=O)[C@@H]1C` [Rifampicin] yielded a minimal inhibitory concentration (MIC) in assay [1] of 0.025 µg/mL (≈ 0.0304 µM).

Molecule `CCN(CC)CCCC(C)Nc1ccnc2cc(Cl)ccc12` (centres unmarked) [chloroquine] gave a negative logarithm of the IC50 (pIC50) with Plasmodium falciparum K1 of 6.24.

Take `COc1cccc2c1C(=O)c1c(O)c3c(c(O)c1C2=O)C[C@@](O)(C(=O)CO)C[C@@H]3O[C@H]1C[C@H](N)[C@H](O)[C@H](C)O1` [doxorubicin, reference compound]: the negative-log IC50 (pIC50) is 6.82 in assay [2] and 4.96 in assay [3].

Take `Cc1c2ccncc2c(C)c2c1[nH]c1ccccc12` [ellipticine, reference compound]: the results for the pIC50 (in assay [2]; with Vero cells) were 5.12 and 5.22, respectively.

For `CC(C)=CCC/C(=C/Cc1cc(O)ccc1O)C(=O)O` [fornicin F (10), Fornicin F], the pIC50 in assay [2] was 3.87; in assay [3], less than 3.74; in the assay with Vero cells, less than 3.74.

As to `CCC(=O)CC[C@@]1(C)OC[C@]23[C@@H](O)C(=O)C4=C(C(=O)C[C@@H]([C@@]5(C)CO5)[C@]4(C)CCC(=O)O[C@@H](CC[C@@H](C)[C@H]4CC[C@@]5(C)C6=CC[C@H]7C(C)(C)C(=O)CC[C@]7(C)C6=CC[C@]45C)C(C)(C)O)[C@]2(C)CC[C@@H]31` [ganohochimate A (9), Ganohochimate A], the pIC50 in assay [2] was less than 4.28; in assay [3] it was less than 4.28; with Vero cells, 4.28.

As to `CC(C)=CCCC(C)=CCCC(=CCc1cc(O)ccc1OC(C)(C)C(O)CCC(C)C1CCC2(C)C3=CCC4C(C)(C)C(=O)CCC4(C)C3=CCC12C)C(=O)O` (centres unmarked) [ganohochimin A (1), Ganohochimin A], the pIC50 in assay [2] is 4.72; in assay [3], less than 4.19; with Vero cells it was 4.77.

For the molecule `CC(C)=CCC/C(C)=C/CC/C(=C/Cc1cc(O)ccc1OC(C)(C)[C@@H](O)CC[C@@H](C)[C@H]1CC[C@@]2(C)C3=CC[C@H]4C(C)(C)[C@@H](O)CC[C@]4(C)C3=CC[C@]12C)C(=O)O` [ganohochimin B (2), Ganohochimin B], the negative-log IC50 (pIC50) in assay [2] was 4.48; in assay [3], less than 4.19; in the assay with Vero cells, 4.55.

For the molecule `CC(C)=CCC/C(C)=C/CC/C(=C/Cc1cc(OC(C)(C)[C@@H](O)CC[C@@H](C)[C@H]2CC[C@@]3(C)C4=CC[C@H]5C(C)(C)C(=O)CC[C@]5(C)C4=CC[C@]23C)ccc1O)C(=O)O` [ganohochimin C (3), Ganohochimin C], the negative logarithm of the IC50 (pIC50) in assay [2] was 4.68; in assay [3], less than 4.19; in the assay with Vero cells, 4.52.

`CC(C)=CCC/C(C)=C/CC/C(=C/Cc1cc(OC(C)(C)[C@@H](O)CC[C@@H](C)[C@H]2CC[C@@]3(C)C4=CC[C@H]5C(C)(C)[C@@H](O)CC[C@]5(C)C4=CC[C@]23C)ccc1O)C(=O)O` [ganohochimin D (4), Ganohochimin D]: the negative-log IC50 (pIC50) is 4.80 in assay [2], less than 4.19 in assay [3] and 4.55 in the assay with Vero cells.

For `CC(C)=CCC/C(=C/Cc1cc(O)ccc1OC(C)(C)[C@@H](O)CC[C@@H](C)[C@H]1CC[C@@]2(C)C3=CC[C@H]4C(C)(C)C(=O)CC[C@]4(C)C3=CC[C@]12C)C(=O)O` [ganohochimin E (5), Ganohochimin E], the pIC50 in assay [2] was 4.68; in assay [3], less than 4.15; in the assay with Vero cells, 4.89.

`CC(C)=CCC/C(=C/Cc1cc(O)ccc1OC(C)(C)[C@@H](O)CC[C@@H](C)[C@H]1CC[C@@]2(C)C3=CC[C@H]4C(C)(C)[C@@H](O)CC[C@]4(C)C3=CC[C@]12C)C(=O)O` [ganohochimin F (6), Ganohochimin F]: the pIC50 in assay [2] is 5.11; in assay [3] it was less than 4.15; in the assay on Vero cells, 5.20.

Take `CC(C)=CCC/C(=C/Cc1cc(OC(C)(C)[C@@H](O)CC[C@@H](C)[C@H]2CC[C@@]3(C)C4=CC[C@H]5C(C)(C)C(=O)CC[C@]5(C)C4=CC[C@]23C)ccc1O)C(=O)O` [ganohochimin G (7), Ganohochimin G]: the pIC50 is 4.68 in assay [2], less than 4.15 in assay [3] and 4.85 in the assay with Vero cells.

`CC(C)=CCC/C(=C/Cc1cc(OC(C)(C)[C@@H](O)CC[C@@H](C)[C@H]2CC[C@@]3(C)C4=CC[C@H]5C(C)(C)[C@@H](O)CC[C@]5(C)C4=CC[C@]23C)ccc1O)C(=O)O` [ganohochimin H (8), Ganohochimin H]: the results for the pIC50 (in assay [2]; in assay [3]; in the assay with Vero cells) were 4.74, less than 4.15 and 4.62, respectively.

In turn, `NNC(=O)c1ccncc1` [isoniazid] gave a minimum inhibitory concentration (MIC) in assay [1] of 0.375 µg/mL (≈ 2.73 µM).
